Laboratory results from patent US20250230147A1, “LACTAMS AS CBL-B INHIBITORS” (Genentech, Inc., priority 2021, published 2025).
Structures can show the parent of a compound that is named as a salt. Where two headings read alike, the source gives them in different places.

How the values were obtained:
Cbl-b = Cbl-b (Homo sapiens (Human), UniProt Q13191); experiment: Cbl-b LCK Ub TR-FRET assay (Cbl-b Lck HTRF); assay type: biochemical
Summary of the method: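 Biotin-Cbl-b preincubated with compound (10-point 3-fold series) 60 min, then His-LCK with 1 mM ATP (2× mixture) added for 90 min at room temperature. Ubiquitination detected by TR-FRET using HA-ubiquitin/UBE2D2 adduct, anti-HA-D2 and streptavidin-Eu; IC50 normalised to no-LCK and DMSO controls.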

c-Cbl = c-Cbl (Homo sapiens (Human), UniProt P22681); experiment: C-Cbl LCK Ub TR-FRET assay (c-cbl Lck HTRF); assay type: biochemical; conditions: for (fold-selectivity): C-cbl Lck HTRF IC50 relative to Cbl-b Lck HTRF IC50
Chain of c-Cbl (P22681 47-435): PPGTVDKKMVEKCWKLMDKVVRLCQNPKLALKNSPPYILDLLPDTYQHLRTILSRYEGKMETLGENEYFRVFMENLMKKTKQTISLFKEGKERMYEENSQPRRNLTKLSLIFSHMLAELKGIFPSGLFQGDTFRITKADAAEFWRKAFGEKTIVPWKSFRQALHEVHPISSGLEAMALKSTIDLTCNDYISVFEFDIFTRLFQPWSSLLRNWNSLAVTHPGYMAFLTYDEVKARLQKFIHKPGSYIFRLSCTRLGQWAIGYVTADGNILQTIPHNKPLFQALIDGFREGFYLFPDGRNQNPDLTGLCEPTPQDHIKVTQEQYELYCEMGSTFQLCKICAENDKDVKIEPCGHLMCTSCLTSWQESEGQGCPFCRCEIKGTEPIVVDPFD
Summary of the method: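 After the ubiquitination reaction, detection mixture was added and plates incubated 20 min at room temperature before reading. IC50 values were calculated with wells lacking LCK as the low control and DMSO as the high control.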

Chain of Cbl-b (Q13191 40-426): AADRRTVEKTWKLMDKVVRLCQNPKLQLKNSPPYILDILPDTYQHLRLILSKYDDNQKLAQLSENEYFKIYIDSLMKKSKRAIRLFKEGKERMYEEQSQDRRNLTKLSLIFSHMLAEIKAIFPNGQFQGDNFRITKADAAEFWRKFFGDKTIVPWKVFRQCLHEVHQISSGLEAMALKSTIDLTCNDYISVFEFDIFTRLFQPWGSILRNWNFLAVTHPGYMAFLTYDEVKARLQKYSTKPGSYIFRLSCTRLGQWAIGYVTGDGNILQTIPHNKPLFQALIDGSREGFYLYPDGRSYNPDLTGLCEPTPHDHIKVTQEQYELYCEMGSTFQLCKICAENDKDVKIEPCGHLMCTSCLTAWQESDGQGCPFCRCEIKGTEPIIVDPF

SMILES | IC50 (Cbl-b) [µM] | IC50 (c-Cbl) [µM] | (fold-selectivity) (c-Cbl) | IC50 (Cbl-b; formate) [µM] | IC50 (c-Cbl; formate) [µM]
Cn1cnnc1CC1(c2cccc(N3Cc4c(cc(CNC5(C)CC(F)C5)cc4C(F)(F)F)C3=O)c2)CC(F)(F)C1 (centres unmarked) [Compound 341, 2-(3-(3,3-difluoro-1-((4-methyl-4H-1,2,4-triazol-3-yl)methyl)cyclobutyl)phenyl)-6-(((3-fluoro-1-methylcyclobutyl)amino)methyl)-4-(trifluoromethyl)isoindolin-1-one] | 0.014 | 0.01 | (0.74x) |  | 
Cn1cnnc1[C@@H](F)C1(c2cccc(N3Cc4c(cc(CC5CNC5)cc4C(F)(F)F)C3=O)c2)COC1 [Compound 58, (S)-6-(azetidin-3-ylmethyl)-2-(3-(3-(fluoro(4-methyl-4H-1,2,4-triazol-3-yl)methyl)oxetan-3-yl)phenyl)-4-(trifluoromethyl)isoindolin-1-one] | 0.2 | 0.36 | 1.8x |  | 
CC(C)[C@H]1CNCCN1Cc1cc2c(c(C(F)(F)F)c1)CN(c1cccc(C3([C@@H](F)c4nncn4C)COC3)c1)C2=O [Compound 96, 2-(3-(3((R)-fluoro(4-methyl-4H-1,2,4-triazol-3-yl)methyl)oxetan-3-yl)phenyl)-6-(((S)-2-isopropylpiperazin-1-yl)methyl)-4-(trifluoromethyl)isoindolin-1-one] | 0.012 | 0.018 | 1.5x |  | 
Cn1cnnc1CC1(c2cccc(N3Cc4c(cc(CNC5(C)CCC5(C)C)cc4C(F)(F)F)C3=O)c2)CC(F)(F)C1 (centres unmarked) [Compound 355, 2-(3-(3,3-difluoro-1-((4-methyl-4H-1,2,4-triazol-3-yl)methyl)cyclobutyl)phenyl)-4-(trifluoromethyl)-6-(((1,2,2-trimethylcyclobutyl)amino)methyl) isoindin-1-one formate] | 0.014 | 0.0091 |  |  | 
Cn1cnnc1CC1(c2cc(CCc3ccccc3)nc(N3Cc4c(cc(CNC5(C)CCC5)cc4C(F)(F)F)C3=O)c2)CCC1 [Compound 325, 2-(4-(1-((4-methyl-4H-1,2,4-triazol-3-yl)methyl)cyclobutyl)-6-phenethylpyridin-2-yl)-6-(((1-methylcyclobutyl)amino)methyl)-4-(trifluoromethyl)isoindolin-1-one] | 0.047 | 0.041 | (0.87x) |  | 
Cn1cnnc1[C@H](F)C1(c2cccc(N3Cc4c(cc(CN5CCC6(CC6)C5)cc4C(F)(F)F)C3=O)c2)CC1 [Compound 27, (R)-6-(5-azaspiro[2.4]heptan-5-ylmethyl)-2-(3-(1-(fluoro(4-methyl-4H-1,2,4-triazol-3-yl)methyl)cyclopropyl)phenyl)-4-(trifluoromethyl)isoindolin-1-one] | 0.039 | 0.061 |  |  | 
CN1CC2CC(C1)N2Cc1cc2c(c(C(F)(F)F)c1)CN(c1cccc(C3(Cc4nncn4C)CC(F)(F)C3)c1)C2=O [Compound 413, 2-(3-(3,3-difluoro-1-((4-methyl-4H-1,2,4-triazol-3-yl)methyl)cyclobutyl)phenyl)-6-((3-methyl-3,6-diazabicyclo[3.1.1]heptan-6-yl)methyl)-4-(trifluoromethyl)isoindolin-1-one formate] |  |  |  | 0.056 | 0.05
CCNc1cc(C2(Cc3nncn3C)CC(F)(F)C2)cc(N2Cc3c(cc(CN4CCN(C)C[C@@H]4C(C)C)cc3C(F)(F)F)C2=O)n1 [Compound 236, (S)-2-(4-(3,3-difluoro-1-((4-methyl-4H-1,2,4-triazol-3-yl)methyl)-cyclobutyl)-6-(ethylamino)pyridin-2-yl)-6-((2-isopropyl-4-methylpiperazin-1-yl)methyl)-4-(trifluoromethyl)isoindolin-1-one formate] | 0.0071 | 0.008 |  |  | 
CC[C@@H]1CN(Cc2cc3c(c(C(F)(F)F)c2)CN(c2cccc(C4(Cc5nncn5C)CC(F)(F)C4)c2)C3=O)CCN1 [Compound 426, (R)-2-(3-(3,3-difluoro-1-((4-methyl-4H-1,2,4-triazol-3-yl)methyl)cyclobutyl)phenyl)-6-((3-ethylpiperazin-1-yl)methyl)-4-(trifluoromethyl)isoindolin-1-one] | 0.035 | 0.026 | (0.73x) |  | 
Cn1cnnc1C(F)(F)C1(c2cccc(N3Cc4c(cccc4C(F)(F)F)C3=O)c2)CC(F)(F)C1 [Compound 253, 2-(3-(1-(difluoro(4-methyl-4H-1,2,4-triazol-3-yl)methyl)-3,3-difluorocyclobutyl)phenyl)-4-(trifluoromethyl)isoindolin-1-one] | 1.4 | 3.4 | (2.6x) |  | 
C=CC(=O)Nc1cc(C2(Cc3nncn3C)CCC2)cc(N2Cc3c(cc(CN4CCN(C)C[C@@H]4C(C)C)cc3C(F)(F)F)C2=O)n1 [Compound 239, (S)—N-(6-(6-((2-isopropyl-4-methylpiperazin-1-yl)methyl)-1-oxo-4-(trifluoromethyl)isoindolin-2-yl)-4-(1-((4-methyl-4H-1,2,4-triazol-3-yl)methyl)cyclobutyl)-pyridin-2-yl)acrylamide] | 0.035 | 0.048 | (1.4x) |  | 
Cn1cnnc1CC1(c2cc(OC3CCCC3)nc(N3Cc4c(cccc4C(F)(F)F)C3=O)c2)COC1 [Compound 381, 2-(6-(cyclopentyloxy)-4-(3-((4-methyl-4H-1,2,4-triazol-3-yl)methyl)oxetan-3-yl)pyridin-2-yl)-4-(trifluoromethyl)isoindolin-1-one] | 1.1 | 7.3 | (5.9x) |  | 
CC(C)[C@H]1CN(C)CCN1Cc1cc2c(c(C(F)(F)F)c1)CN(c1cc(C3(Cc4nncn4C)CCC3)cc(NC(=O)CCl)n1)C2=O [Compound 333, (S)-2-chloro-N-(6-(6-((2-isopropyl-4-methylpiperazin-1-yl)methyl)-1-oxo-4-(trifluoromethyl)isoindolin-2-yl)-4-(1-((4-methyl-4H-1,2,4-triazol-3-yl)methyl)cyclobutyl)pyridin-2-yl)acetamide] | 0.052 | 0.053 | (1.0x) |  | 
Cn1cnnc1[C@H](F)C1(c2cccc(N3Cc4c(cc(CN5CC(C)(CO)C5)cc4C(F)(F)F)C3=O)c2)CC1 [Compound 126, (R)-2-(3-(1-(fluoro(4-methyl-4H-1,2,4-triazol-3-yl)methyl)cyclopropyl)phenyl)-6((3-(hydroxymethyl)-3-methylazetidin-1-yl)methyl)-4-(trifluoromethyl)isoindolin-1-one] | 0.064 | 0.093 | 1.5x |  | 
Cn1cnnc1[C@H](F)C1(c2cccc(N3Cc4c(cc(CN5CC(CCO)C5)cc4C(F)(F)F)C3=O)c2)COC1 [Compound 177, (R)-2-(3-(3-(fluoro(4-methyl-4H-1,2,4-triazol-3-yl)methyl)oxetan-3-yl)phenyl)-6-((3-(2-hydroxyethyl)azetidin-1-yl)methyl)-4-(trifluoromethyl)isoindolin-1-one] | 0.041 | 0.091 | 2.2x |  | 
COc1cc(C2(Cc3nncn3C)CCC2)cc(N2Cc3c(cc(CN4CCN(C)C[C@@H]4C(C)C)cc3C(F)(F)F)C2=O)n1 [Compound 365, (S)-6-((2-isopropyl-4-methylpiperazin-1-yl)methyl)-2-(6-methoxy-4-(1-((4-methyl-4H-1,2,4-triazol-3-yl)methyl)cyclobutyl)pyridin-2-yl)-4-(trifluoromethyl)isoindolin-1-one] | 0.012 | 0.0067 | (0.57x) |  | 
Cn1cnnc1CC1(c2cc(NCCC#N)nc(N3Cc4c(cc(CNC5(C)CCC5)cc4C(F)(F)F)C3=O)c2)CCC1 [Compound 308, 3-((4-(1-((4-methyl-4H-1,2,4-triazol-3-yl)methyl)cyclobutyl)-6-(6-(((1-methylcyclobutyl)amino)methyl)-1-oxo-4-(trifluoromethyl)isoindolin-2-yl)pyridin-2-yl)amino)propanenitrile] | 0.012 | 0.0075 | (0.63x) |  | 
Cn1cnnc1[C@@H](F)C1(c2cccc(N3Cc4c(cc(CN5CC6(CC6)C5)cc4C(F)(F)F)C3=O)c2)COC1 [Compound 79] | 0.17 | 0.27 | 1.6x |  | 
CC(=O)N1CCC(CNc2cc(C3(Cc4nncn4C)CCC3)cc(N3Cc4c(cc(CNC5(C)CCC5)cc4C(F)(F)F)C3=O)n2)CC1.Cl [Compound 329, 2-(6-(((1-acetylpiperidin-4-yl)methyl)amino)-4-(1-((4-methyl-4H-1,2,4-triazol-3-yl)methyl)cyclobutyl)pyridin-2-yl)-6-(((1-methylcyclobutyl)amino)methyl)-4-(trifluoromethyl)isoindolin-1-one hydrochloride] | 0.098 | 0.065 | (0.66x) |  | 
Cn1cnnc1[C@@H](F)C1(c2cccc(N3Cc4c(cc(CN5CCC5)cc4C(F)(F)F)C3=O)c2)COC1 [Compound 71, (S)-6-(azetidin-1-ylmethyl)-2-(3-(3-(fluoro(4-methyl-4H-1,2,4-triazol-3-yl)methyl)oxetan-3-yl)phenyl)-4-(trifluoromethyl)isoindolin-1-one] | 0.24 | 0.4 | 1.7x |  | 
CC(C)C1(O)CN(Cc2cc3c(c(C(F)(F)F)c2)CN(c2cccc(C4([C@@H](F)c5nncn5C)COC4)c2)C3=O)C1 [Compound 183, (R)-2-(3-(3-(fluoro(4-methyl-4H-1,2,4-triazol-3-yl)methyl)oxetan-3-yl)phenyl)-6-((3-hydroxy-3-isopropylazetidin-1-yl)methyl)-4-(trifluoromethyl)isoindolin-1-one] | 0.057 | 0.12 | 2.2x |  | 
